Holding throughout (assay type): cell-based
Experiment [1] has as its system Salmonella. As to the kind of experiment: Inclusivity: culture of pure Salmonella serovars in BPW with selective agent or supplement, ELISA detection (FIG. 4, FIG. 6). As to conditions: 5 mg/L 4PYcq; 20 hour culture; same inoculums of pure Salmonella cultures. The text has this:
FIG. 4 illustrates inclusivity study data where multiple Salmonella serovars were artificially inoculated into either Buffered Peptone Water (BPW) on its own, or BPW enriched with either a selective cefsulodin, novobiocin, brilliant green lyophilised supplement run in the absence or presence of an oatmeal food matrix; or a selective cefsulodin, novobiocin, 4PYcq lyophilised supplement run in the absence of an oatmeal food matrix.
FIG. 6 illustrates inclusivity study data where multiple Salmonella serovars were artificially inoculated into BPW enriched with a selective cefsulodin, novobiocin, 4PYcq lyophilised supplement at low levels.
A general note: An ELISA detects its analyte on a solid surface through an enzyme-linked reagent.

In experiment [2] the test system is competing microflora. Put plainly: Suppression of competing microflora in cultures of sample types. As to conditions: 5 mg/L; range of sample types, including dairy and probiotic foods.
Experiment [3] concerns Salmonella. Put plainly: Recovery and detection of Salmonella from spices, herbs and flavourings, single step culture (FIGS. 9-13). As to conditions: spices/flavourings from the allium family; FIG. 13. The text has this: This was at fractional inoculation level (2-8 cfu). Accordingly a method with the ‘Spice neutraliser’ supplement is capable of detecting Salmonella from spice/herb/flavouring samples, even when the Salmonella is present at fractional levels.
This was at a high inoculation level (40-92 cfu).
The data provided in FIGS. 9A and 9B are derived from samples that were inoculated with a relatively high level of Salmonella (FIG. 9A—77-114cfu; FIG. 9B—38 cfu).
FIG. 10 provides data derived from fractional inoculation levels (2-8 cfu). In this instance the cells are cultured in the 4PYcq/Cefsulodin/Novobiocin supplement at half the concentration of that used previously, i.e. at a working concentration of 2.5 mg/L 4PYcq, 4 mg/L Cefsulodin and 5 mg/L Novobiocin.

SMILES strings stand for the structures.

For the molecule `CC(C)(C)c1cc(/C=N/N=C(\N)c2ccncc2)c(O)c(C(C)(C)C)c1` [4PYcq], the “identification of Salmonella by ELISA after culture” value in experiment [1] is “positive identification of the presence of Salmonella”. Further, the “suppression of competing microflora” value in experiment [2] is on record as “sufficient suppression of competing microflora”. Turning to `O=S([O-])[O-].[K+].[K+]` [potassium salt component, potassium sulphite], in experiment [3], the “recovery of Salmonella” value is “sufficient for recovery of Salmonella”.

These data come from patent publication US20220002663A1, “SELECTIVE SALMONELLA OR E. COLI CULTIVATION METHOD, COMPOSITIONS AND USES” (SOLUS SCIENTIFIC SOLUTIONS LTD, priority 2018, published 2022).
